Test results: patent US9017643B2, “Particles comprising a releasable dopant therein” (Australian Nuclear Science and Technology Organisation, priority 2005, dated 2015)
Values belong to the compound of their own block, whether it stands above or below them.

Assays:
[1] = silica shell capsules loaded by post impregnation; after four hours; cited from earlier work
[2] = Release into sodium hydroxide solution at pH=12; format: physicochemical; conditions: Example 3, after 27 days, both samples (phenylsiloxane and vinylsiloxane)
Description: The rate of release of diuron into sodium hydroxide solution at pH=12 was measured over a period of one month. Analysing the extent of release is somewhat problematic due to the low solubility of diuron in water. In order to determine the release characteristics, diuron-doped particles (about […]) were suspended in NaOH solution (0.01 mol dm^−3, 50 mL) and stirred. At one-week intervals, the solution was centrifuged and the supernatant removed. The diuron-doped particles were then resuspended in a fresh solution of NaOH (0.01 mol dm^−3, 50 mL) and stirred. The removed supernatant was shaken with octanol (10 mL) in a separating flask to extract dissolved diuron. This was repeated twice, and the resulting approximately 30 mL organic fraction was reserved for diuron analysis by HPLC. The amount of diuron released after 27 days was about 5% (of the total encapsulated) for both samples. The amount released was less than expected compared with the dissolution results at pH=12. This could reflect an incomplete extraction of diuron from the aqueous phase during the process of shaking with octanol.

[3] = Release into 50/50 v/v ethanol/water; format: physicochemical; conditions: phenylsiloxane particles
Description: Release of retinol from the particles into 50:50 (v/v) ethanol:water solution was measured over a period of 11 days. Due to decomposition of retinol released into the solution, the supernatant was refreshed at each time point, and the release measured using UV/Vis spectroscopy (peak at 325 nm). Approximately 11% of the encapsulated retinol was released after one day, followed by slower release thereafter.
(§1) The sample was suspended in 50/50 v/v ethanol/water (10 mL) with stirring. At each time point, the sample was centrifuged (10,000 rpm, 10 minutes) and the supernatant removed. Fresh solvent was then added and the solid resuspended. In comparison, the release of dye from a similar sample into 100% ethanol solution is very rapid, with about 40% of the dye released after several minutes.
(§2) The sample was suspended in 50/50 v/v ethanol/water (10 mL) with stirring. At each time point, the sample was centrifuged (10,000 rpm, 10 minutes) and the supernatant removed. Fresh solvent was then added and the solid resuspended. In contrast to the slow release into ethanol/water, the release into ethanol is very rapid, with approximately 70% of the encapsulated dye released within one hour.

[4] = Integrity of retinol after encapsulation (UV/Visible spectra, leaching into ethanol); format: physicochemical
From the text: The UV/Visible spectra of the both retinol-doped and undoped phenylsiloxane particles dispersed in PTFE powder (10 wt %), were collected using a diffuse reflectance accessory. […] The bandshift from 325 nm in ethanol solution to 335 nm in the solid is due to difference of environment experienced by the retinol molecule. […] This is likely to be due to exposure to low pH (=1.0) during the hydrolysis of TMOS.

Release into ethanol = format: physicochemical; conditions: for Encapsulated dye released: ethanol
Description: as §1, §2
The samples (53.5 and 49.2 mg respectively) were suspended in ethanol (100 mL) with stirring. At each time point, 1.5 mL was extracted from both samples and centrifuged to isolate the solid, which was then returned to the solution with 1 mL of fresh ethanol. The extracted 1.5 mL was analysed by UV/Vis (absorbance at 536 nm), to determine the concentration of sudan red dye released into the supernatant. The second sample released dye more quickly than the first, but by 100 minutes, both samples had released >90% of the encapsulated sudan red dye.

Compound: C1=Cc2nc1c(-c1ccccc1)c1ccc([nH]1)c(-c1ccccc1)c1nc(c(-c3ccccc3)c3ccc([nH]3)c2-c2ccccc2)C=C1 [tetraphenyl porphyrin]
- Porphyrin leached from the particles [1]: 60%

Compound: CN(C)C(=O)Nc1ccc(Cl)c(Cl)c1 [diuron]
- Amount released (of the total encapsulated) [2]: about 5%

Compound: CCCCNc1ccc(NCCCC)c2c1C(=O)c1ccccc1C2=O [Solvent blue 35]
- Dye released (Release into ethanol; similar sample to Example 5, 100% ethanol, after several minutes): about 40%

Compound: Sudan red
- Release (in words) ([3]; Example 6, 50/50 v/v ethanol/water): slow release
- Encapsulated dye released (Release into ethanol; Example 6, phenylsiloxane particles, within one hour): approximately 70%
- Encapsulated dye released (Release into ethanol; Example 7, vinylsiloxane particles, by 100 minutes, both samples): > 90%

More lines, main results first:

- Encapsulated dopant released ([3]; Example 1, 50:50 (v/v) ethanol:water, after one day): Approximately 11%
- Integrity after encapsulation ([4]; silica particles made by double emulsion process with TMOS, no peak at 325 nm): has been degraded
Compound: CC1=C(/C=C/C(C)=C/C=C/C(C)=C/CO)C(C)(C)CCC1 [retinol]
- Integrity after encapsulation ([4]; phenylsiloxane particles, absorption peak at 325 nm on release into ethanol): has not been damaged

- Weight removed from the solid on leaching in ethanol (Release into ethanol; 15 ml limonene: 30 ml PTMS, HPLC): about 3%
Compound: C=C(C)[C@H]1CC=C(C)CC1 [limonene]
